Reference: patent US20120003298A1, “METHODS FOR INDUCING AN IMMUNE RESPONSE” (priority 2010, published 2012)

What was measured:
[1] = Solubility observations in the text
[2] = tested on: Salmonella typhimurium TA1535, TA1537, TA98, TA100; assay: Bacterial mutation assay, Salmonella typhimurium; assay type: cell-based
Description: (§1) The five tester strains TA1535, TA1537, TA98, TA100 and WP2 uvrA were used. Experiments were performed both in the absence and presence of metabolic activation, using liver S9 fraction from rats pre-treated with phenobarbitone and betanaphthoflavone. SC12 was used as a solution in dimethylsulfoxide (DMSO).

[3] = Intravenous pharmacokinetics in the mouse
Description: An IV bolus was administered into the caudal vein at a dose of 1 mg/kg in 5 ml. The compound weight was 2.08/10.04 ml. 24 mice were studied. Sampling was obtained by exsanguination under anesthesia, at 5, 15, 30, 60, 240, and 480 minutes, and at 24 hours. […] Animals were sacrificed using ethyl ether at the conclusion of the experiment.
Sample preparation: In a Sirocco filter plate, 100 microliters of plasma were added to 300 microliters of ACN/MeOH spiked with 5 microliters of IS (IV298 10 micrograms per ml) plus 10 microliters of 5% H3PO4. The plate was shaken for 10 minutes at 80 rpm and then filtered under vacuum for 5 minutes.
Analytical method: LC/MS/MS: Premiere XE, Eluent: water (A) MeOH(B) plus 0.1% HCOOH gradient. 15% B to 100% B from 0.1 to 0.5, then isocratic 100% B up to 1.5 minutes, flow 0.8 ml/min; Column Acquity HPLC BEH C18 1.7 microm 2.1×50 mm, injection volume of 5 microliters in a T column at 50° C. ESI positive, MRM, Extractor 5V; Capillary 3.5 kV; T source 115° C.; T desolv. 450° C.
Data analysis: Non-compartmental analysis WinNonlin 5.1; linear trapezoidal, uniform weight.

CYP2C9 = target: T1, CYP2C9 (Homo sapiens, UniProt P11712); assay: Fluorescent High Throughput P450 assay, CYP2C9; assay type: biochemical
T1 construct: purchased Gentest
T1 sequence (P11712 whole entry): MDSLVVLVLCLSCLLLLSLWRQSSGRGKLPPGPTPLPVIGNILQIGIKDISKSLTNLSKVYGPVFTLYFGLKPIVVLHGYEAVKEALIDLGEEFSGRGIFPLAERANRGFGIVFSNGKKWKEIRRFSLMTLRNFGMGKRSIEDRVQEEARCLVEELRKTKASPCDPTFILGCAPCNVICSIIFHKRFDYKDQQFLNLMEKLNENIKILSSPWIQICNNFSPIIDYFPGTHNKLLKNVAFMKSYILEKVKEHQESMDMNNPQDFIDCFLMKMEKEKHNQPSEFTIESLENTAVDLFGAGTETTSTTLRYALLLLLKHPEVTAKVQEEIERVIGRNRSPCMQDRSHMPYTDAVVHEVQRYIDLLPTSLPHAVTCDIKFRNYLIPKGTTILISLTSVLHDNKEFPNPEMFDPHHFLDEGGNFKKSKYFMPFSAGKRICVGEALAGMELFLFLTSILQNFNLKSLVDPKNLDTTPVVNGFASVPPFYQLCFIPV
Description: (§2) Inhibition of the P450 isoforms was measured in specific assays using specific substrates that become fluorescent upon CYP metabolism. Compounds, dissolved in ACN (acetonitrile) (CYP2E1, CYP2C8, CYP2B6, CYP3A5) or DMSO (all remaining isoforms), were tested in duplicate (n=2) in concentration-response curves (eight concentrations) in a 96-well plate containing incubation/NADPH regenerating buffer. Specific isoenzymes and substrates were added and incubated at 37° C. Reactions were terminated at different times, depending on the assays, and plates read on a Fluoroskan Ascent at the appropriate emission/excitation wavelengths. Concentration-response curves performed in duplicate for known inhibitors for each isoenzyme were tested in every assay as positive control.

[4] = Stability on storage by HPLC (solid or chloroform solution; temperature, light); details: for HPLC % at RRT = 1: SC12
Description: At this point, a stability study was conducted on batch CH730/16/8g.
The samples were analyzed at t=0 and after 20 days.

[5] = tested on: AY-27 rat bladder cancer cell-line; details: in vivo
MB49 cells = assay: Mouse bladder cancer model, intravesical treatment (Experiment 24); assay type: in vivo
Description: A set of experiments was conducted with SC12 in various solutions, in a mouse bladder cancer model.
7-9 week old C57BU6 mice were implanted with 1×10^6 MB49 cells after 0.1% poly L lysine treatment on day 0. […] On day 11, mice were sacrificed and organs were harvested.

[6] = tested on: plasmacytoid CD11c−/CD123+DCs; assay: FACS, plasmacytoid DC activation in whole blood; assay type: cell-based, human; details: 24 hours; 0.1 and 0.5 uM
Description: The FACS analysis for donor 1 and donor 2 was made on another day than donor 3. The compound concentrations were as follows:
B cell activation: 2 and 10 uM mDC/pDC: 0.1 and 0.5 uM
The FACS analysis was used to identify whether the test compounds could induce activation of B cells, and two different subsets of dendritic cells, namely the myeloid CD11c+/CD123− DCs and the plasmacytoid CD11c−/CD123+DCs. The following markers were studied to identify the activation status of the different subsets:
The FACS staining was performed according to the manufacturer's instructions. Lysis of red blood cells was performed before FACS staining in order to minimize auto-florescence. To include as many B cells and DCs in the study as possible the FACS analyses were performed on 500,000 cells in total for each staining. A P1 gate was set only to include relevant cells on FSC vs. SSC (see FIGS. 12-15). The results of the individual analysis were present as Mean Fluorescence Intensity (MFI) values, for certain activation marker in a given gate setting, represent the actual cell subset. The isotype background values have been used to set the gates so that a maximum at 2% of unspecific stained cells could be found in the positive gates.
The analysis of pDCs was based on HLA-DR+/CD11c−/CD123+ cells, thus all analyzed cells were included in the HLA-DR+ (P3) gate and CD11c−/CD123+(Q1) gate.

NFκB-bla Raw 264.7 Cells = assay: NFκB activation in NFκB-bla Raw 264.7 cells; assay type: cell-based, mouse; details: FIG. 2
Description: NFκB-bla Raw 264.7 Cells were purchased from Life Technologies Corporation (Carlsbad, Calif.). […] Drugs were dissolved and diluted in DMSO to obtain an initial stock solution (10 or 50 mM). Drugs were then serially diluted (usually 1:3 or 1:5) in DMSO. The stock solutions were further diluted in Assay Medium and added to cells already in each well.

[7] = tested on: 73 primary molecular targets; assay: Radioligand binding assay among 73 primary molecular targets; details: SC12 tested at 30 microM
PBMCs = assay: IL-6 and TNF-alpha secretion in PBMC model (Model 2), ELISA; assay type: cell-based, human; details: three donors
RAW.264 cells = assay: Intracellular uptake in RAW.264 cells, LC-MS; assay type: in vitro ADME; details: 10 microM
Description: 5×10^6 RAW.264 cells were adhered overnight in 10 cm tissue culture dishes. […] […] Supernatant (2 ml) and cells (pellets) were collected by trypsinization and frozen at […] for subsequent analysis by LC-MS.

human PBMCs = assay: IL-6 secretion in human PBMCs, two batches of Compound A and SC12 (Example 4); assay type: cell-based; details: 5 months storage in DMSO at 4° C.
Description: PBMCs were purified from two donors and plated into 96 well plates at 2×10^5 cells/well in RPMI media including human 2% heat inactivated AB serum, glutamine, Pen-strep and β-mercaptoethanol. The cells were treated with TLR7 agonists for 24 h in 4 doses. The conditioned media was removed for ELISA analyses for IL-6, and the EC50 value determined for each compound and each batch.
All compounds were tested in four concentrations (10-1-0.1-0.01 micromolar).
Concentrations of IL-6 were determined by ELISA from R&D Systems using the Microsoft Excel software. The results were analyzed in Graph Pad Prism in order to prepare dose-response curves, and for determination of EC50 values.

CYP3A4 = target: T2, CYP3A4 (Homo sapiens, UniProt P08684); assay: Fluorescent High Throughput P450 assay, CYP3A4; assay type: biochemical
T2 construct: purchased Gentest
T2 sequence (P08684 whole entry): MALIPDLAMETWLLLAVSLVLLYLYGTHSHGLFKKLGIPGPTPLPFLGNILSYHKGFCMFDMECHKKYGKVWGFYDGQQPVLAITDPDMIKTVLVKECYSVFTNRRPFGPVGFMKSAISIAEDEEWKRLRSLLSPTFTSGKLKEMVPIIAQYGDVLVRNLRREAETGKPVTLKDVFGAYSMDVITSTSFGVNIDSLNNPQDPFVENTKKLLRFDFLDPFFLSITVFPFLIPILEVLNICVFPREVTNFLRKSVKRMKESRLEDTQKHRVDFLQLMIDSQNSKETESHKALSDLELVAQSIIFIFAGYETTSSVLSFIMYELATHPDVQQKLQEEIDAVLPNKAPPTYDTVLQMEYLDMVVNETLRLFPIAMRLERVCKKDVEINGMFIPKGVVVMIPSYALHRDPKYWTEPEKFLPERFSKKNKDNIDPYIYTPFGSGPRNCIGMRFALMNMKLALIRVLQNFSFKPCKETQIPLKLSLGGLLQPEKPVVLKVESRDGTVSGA
Description: as §2

[8] = tested on: recombinant antigens from Plasmodium falciparum and Mycobacterium ulcerans; assay: Pilot immunization study with adjuvanted recombinant protein antigens; assay type: in vivo, mouse
Description: A pilot immunization study was conducted using Compound A and SC12 adjuvanted protein antigens. The immunization experiments were performed with two recombinant proteins expressed in E. coli. One antigen was derived from the malaria parasite Plasmodium falciparum and the other one from Mycobacterium ulcerans, which cause the ulcerative skin disease Buruli ulcer.

CYP2E1 = target: T3, CYP2E1 (Homo sapiens, UniProt P05181); assay: Fluorescent High Throughput P450 assay, CYP2E1; assay type: biochemical
T3 construct: purchased Gentest
T3 sequence (P05181 whole entry): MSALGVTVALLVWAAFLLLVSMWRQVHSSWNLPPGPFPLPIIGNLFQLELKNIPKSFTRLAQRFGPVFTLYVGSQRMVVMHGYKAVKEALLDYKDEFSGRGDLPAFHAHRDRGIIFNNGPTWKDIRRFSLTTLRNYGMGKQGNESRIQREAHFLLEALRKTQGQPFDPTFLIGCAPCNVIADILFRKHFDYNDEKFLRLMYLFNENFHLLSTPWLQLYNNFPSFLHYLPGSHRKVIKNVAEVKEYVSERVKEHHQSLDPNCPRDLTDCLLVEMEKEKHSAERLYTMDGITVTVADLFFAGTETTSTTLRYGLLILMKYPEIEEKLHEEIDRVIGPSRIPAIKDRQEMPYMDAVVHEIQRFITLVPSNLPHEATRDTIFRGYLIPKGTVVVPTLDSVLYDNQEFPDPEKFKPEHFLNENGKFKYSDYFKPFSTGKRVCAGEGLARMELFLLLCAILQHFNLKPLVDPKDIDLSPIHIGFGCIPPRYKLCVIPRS
Description: as §2

[9] = Single dose intravenous toxicity study in rats; assay type: in vivo, Sprague Dawley rat
Description: An additional group, similarly composed, received the vehicle alone and acted as a control. […] Clinical signs were limited to piloerection and reduced activity, observed on the day of dosing.
A second group was dosed at 100 mg/kg. […] A third group was then dosed at 85 mg/kg. […] A fourth group was finally dosed at 90 mg/kg. […] Piloerection was observed from Day 2 up to Day 4 of the study.
In the main phase, 5 male and 5 female animals were dosed at 90 mg/kg and observed for a period of 14 days. A second group, similarly constituted, received the vehicle alone and acted as control. […] In addition, one male and one female dosed at 90 mg/kg were found dead on Day 2 of the study. Twitches, ataxia, piloerection, reduced activity and hunched posture were the major signs observed in animals before death. […] Piloerection was observed up to Day 3 of the study. A second group, similarly composed, was dosed at 80 mg/kg.
Recovery occurred by Day 15 and the body weight changes were within the expected range for this species and age of animals at the end of the study. […] Surviving animals were killed at the end of the observation period with carbon dioxide narcosis. All animals, including the early decedents, were subjected to necropsy examination. […] Therefore, the maximum tolerated dose in this study was considered to be 80 mg/kg.

[10] = tested on: Escherichia coli WP2 uvrA; assay: Bacterial mutation assay, Escherichia coli; assay type: cell-based
Description: as §1

OVA specific Ig = assay: Adjuvanticity with ovalbumin (OVA), subcutaneous immunization; assay type: in vivo, mouse
Description: For the adjuvanticity experiments, mice were subcutaneously immunized with 20 pg ovalbumin (OVA) with 10 nmol or 100 nmol (TLR7 agonist equivalent dose) per mouse in various TLR7 conjugates on days 0 and 7. Sera were collected on days 0, 7, 14, 21, 28, 42, and 56. Mice immunized with saline or OVA mixed with vehicle served as controls. Mice were sacrificed on day 56.
Immunization occurs on day 0 and 7. Serum collection day is on 0, 7, 14, 21, 28, 42 and 56 days.

[11] = 50.0-5000 micrograms/plate, absence or presence of S9
[12] = up to 5000 micrograms/plate, absence or presence of S9 metabolism

SMILES: CCCCCCCCCCCC(=O)OCC(COP(=O)(O)OCCNC(=O)c1ccc(Cn2c(=O)[nH]c3c(N)nc(OCCOC)nc32)cc1)OC(=O)CCCCCCCCCCC (stereo not drawn) [SC12]
- solubility ([1]; P450 assays, especially in ACN): low solubility
- precipitation in bacterial mutation assay ([1]; toxicity test, two highest concentrations (5000 and 1580 micrograms/plate), end of incubation): Precipitation
- toxicity to tester strains [2, 11]: No toxicity was observed with any tester strain at any dose level
- reverse mutation [2, 12]: does not induce reverse mutation
- adverse behavioral effects ([3]; IV 1 mg/kg): No adverse behavioral effects were noted
- AUC INF obs ([3]; IV bolus 1 mg/kg, plasma): 12878 ng·min/mL
- AUClast ([3]; IV bolus 1 mg/kg, plasma): 11744 ng·min/mL
- inhibition of CYP2C9 (CYP2C9): weak inhibition
- HPLC % at RRT = 1 ([4]; Solid, RT and light, t = 20 days): RRT = 1: 87.8%
- HPLC % at RRT = 1 ([4]; Solid, external T and light, t = 20 days): RRT = 1: 84.0%
- HPLC % at RRT = 1 ([4]; Solution in CHCl3, RT and light, t = 0): RRT = 1: 90.3%
- HPLC % at RRT = 1 ([4]; Solution in CHCl3, RT and light, t = 20 days): RRT = 1: 88.0%
- stability compared with compound A ([4]; storage 20 days): more stable than compound A
- toxicity [5]: No signs of toxicity
- serum IL-6 and TNF-alpha (MB49 cells; Experiment 1, in Phosal 50, 50 microliters, 20 minutes, 2 h and 24 h): under the detection levels
- bladder histology, cell infiltration (MB49 cells; Experiment 4, SC12 0.38%, MB49 implanted bladder, day 11): more monocyte infiltration
- CD80 expression in pDCs (MFI, words) [6]: slightly higher CD80 expression than compound A
- CD86 expression in pDCs (MFI, words) [6]: tendency to induce higher CD86 expression than compound A
- activity in NFkB RAW cells (NFκB-bla Raw 264.7 Cells): more active than the free pharmocophore
- binding to receptors associated with pain-related syndromes (e.g. adenosine and sodium channel) [7]: did not bind this type of receptors
- potency for TNF-alpha secretion (PBMCs): on average slightly more potent than compound A
- Intracellular Concentration % of total (RAW.264 cells; Incubation 1 hours): 18.5 % of total
- Intracellular Concentration % of total (RAW.264 cells; Incubation 6 hours): 20.6 % of total
- Intracellular Concentration % of total (RAW.264 cells; Incubation 18 hours): 21.4 % of total
- activity after storage (human PBMCs): have not lost activity
- inhibition of CYP3A4 (CYP3A4): moderate inhibition
- local side effects ([8]; subcutaneous, 10 nMol): No local side effects
- IgG responses against the target antigens ([8]; three subcutaneous immunizations, 20 micrograms antigen with 10 nMol adjuvant): developed IgG responses
- inhibition of CYP2E1 (CYP2E1): moderate inhibition
- mortality and clinical signs ([9]; 76 mg/kg, preliminary phase): No mortality occurred
- mortality and clinical signs ([9]; 80 mg/kg, main phase): No mortality occurred and no clinical signs were recorded
- mortality and clinical signs ([9]; 85 mg/kg, preliminary phase): Piloerection was observed on the day of dosing
- necropsy examination ([9]; 90 mg/kg and 80 mg/kg): No abnormalities were observed at necropsy examination
- mortality and clinical signs ([9]; 90 mg/kg, main phase, 5 male and 5 female): Three males treated at 90 mg/kg died immediately after dosing, while two females died at 2 hours post-dose
- mortality and clinical signs ([9]; 90 mg/kg, preliminary phase): No mortality occurred
- mortality and clinical signs ([9]; 100 mg/kg, preliminary phase): Both animals died at dosing
- body weight ([9]; surviving animals at 90 mg/kg and animals at 80 mg/kg): slight to moderate body weight loss on Day 2
- toxicity to tester strains [10, 11]: No toxicity was observed with any tester strain at any dose level
- reverse mutation [10, 12]: does not induce reverse mutation
- adjuvant potency, Th1 immune response (OVA specific Ig; 100 nmoles SC12 equivalent to 10 nmoles compound A): 10 times less potent than compound A or compound A*
- antigen specific IgG2a (OVA specific Ig; OVA 20 μg with 10 or 100 nmoles, days 0 and 7): significantly higher than the immunization with OVA alone
- OVA-specific IgG1 (OVA specific Ig; mouse, in vivo): not found to induce high levels of OVA-specific IgG1
